Target: T1, STK23 (MSSK1) (Homo sapiens, UniProt Q9UPE1)
T1 construct: purchased Thermo Fisher Scientific (Life Technologies) SelectScreen
Experiment: SelectScreen Z'LYTE
Type: biochemical
How it was run: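 SelectScreen broad panel; activity (Z'LYTE, Adapta) plus binding formats. ATP: Km app for CSF1R Z'LYTE; 10 for CAMK1 Adapta. Readout = % per kinase.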

T1 sequence (Q9UPE1 whole entry): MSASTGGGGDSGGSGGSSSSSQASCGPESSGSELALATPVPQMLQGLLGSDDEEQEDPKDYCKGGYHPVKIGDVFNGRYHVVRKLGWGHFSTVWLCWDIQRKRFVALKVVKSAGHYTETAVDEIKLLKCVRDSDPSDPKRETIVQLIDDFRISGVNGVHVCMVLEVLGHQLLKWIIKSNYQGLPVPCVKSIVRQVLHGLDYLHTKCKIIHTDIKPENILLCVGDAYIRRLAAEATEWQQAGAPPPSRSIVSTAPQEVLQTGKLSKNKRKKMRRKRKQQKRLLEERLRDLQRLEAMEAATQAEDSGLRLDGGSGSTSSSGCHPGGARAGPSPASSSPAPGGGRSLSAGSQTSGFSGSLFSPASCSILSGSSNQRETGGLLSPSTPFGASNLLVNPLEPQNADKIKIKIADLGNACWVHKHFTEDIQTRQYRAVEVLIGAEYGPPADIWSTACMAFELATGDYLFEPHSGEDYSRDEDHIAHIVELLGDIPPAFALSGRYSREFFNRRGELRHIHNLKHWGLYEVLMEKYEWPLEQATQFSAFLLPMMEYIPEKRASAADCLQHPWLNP

For `CN(C(=O)CN1CCOCC1)c1ccc2sc3c(-c4cccc5c(=O)cc(N6CC7CCC(C6)O7)oc45)cccc3c2c1` [NU5455], the inhibition at 1 µM was 2%.
